Article PMC7181634, “Enhanced succinic acid production by Mannheimia employing optimal malate dehydrogenase” (Nature Communications, 2020)

Assays:
CgMDH = target: T1, CgMDH (Corynebacterium glutamicum, UniProt Q8NN33); assay: NADH oxidation at […] nm; modified Briggs-Haldane fit; format: biochemical; details: pH 7.0, 0.1 M Tris-HCl, NADH co-substrate, room temperature; substrate inhibition
T1 construct: gene mdh; full length, C-terminal 6xHis (pET30a), expressed in E. coli BL21(DE3), Ni-NTA, ion exchange and size exclusion

MsMDH = target: T2, MsMDH ([Mannheimia] succiniciproducens, UniProt Q65T37); assay: as above; format: biochemical; details: pH 7.0, 0.1 M Tris-HCl, NADH co-substrate, room temperature; uncompetitive substrate inhibition
T2 construct: gene mdh; full length, C-terminal 6xHis (pET30a), expressed in E. coli BL21(DE3), Ni-NTA, ion exchange and size exclusion
T2 sequence (Q65T37 1-312): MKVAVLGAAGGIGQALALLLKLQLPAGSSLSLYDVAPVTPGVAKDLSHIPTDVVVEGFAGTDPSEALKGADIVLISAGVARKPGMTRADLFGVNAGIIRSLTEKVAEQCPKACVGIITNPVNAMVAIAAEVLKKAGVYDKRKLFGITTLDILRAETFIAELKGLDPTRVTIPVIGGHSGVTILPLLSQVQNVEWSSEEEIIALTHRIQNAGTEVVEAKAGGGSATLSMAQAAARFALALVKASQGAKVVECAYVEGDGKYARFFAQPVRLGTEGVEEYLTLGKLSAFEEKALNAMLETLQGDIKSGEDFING

T1 sequence (Q8NN33 whole entry): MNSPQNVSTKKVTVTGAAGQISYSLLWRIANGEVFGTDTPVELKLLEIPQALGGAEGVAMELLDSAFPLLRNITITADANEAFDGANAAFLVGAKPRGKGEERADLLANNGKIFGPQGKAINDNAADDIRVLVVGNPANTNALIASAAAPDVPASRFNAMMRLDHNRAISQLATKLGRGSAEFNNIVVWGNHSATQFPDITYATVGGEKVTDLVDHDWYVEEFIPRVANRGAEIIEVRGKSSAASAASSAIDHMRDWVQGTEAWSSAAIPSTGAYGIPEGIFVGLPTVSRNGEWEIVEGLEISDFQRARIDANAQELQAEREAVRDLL

## O=C(O)CC(=O)C(=O)O [oxaloacetate]
CgMDH
  CgMDH / ki: 500.0 ± 114.1 µM
MsMDH
  MsMDH / ki: 47.3 ± 22.1 µM
